Results published in ChEMBL document CHEMBL5303711, “ECBD screening data for assay EOS300108” (2023).
Active and inactive are the calls of the source. No rule for the calls is given here.

Test: Cytotoxicity activity against human HepG2 cells assessed by CellTiter-Glo luminescent cell viability assay.
Format: toxicity, cell-based
Design: assay stage confirmatory assay, source tissue liver
Conditions: HepG2 cells, read-out: IC50 relative

SMILES | CC50
CC(C)Oc1cc(O)c2c(=O)c(-c3ccc(O)cc3)coc2c1 | 15.6 µM (active)
O=c1c2ccccc2cnn1-c1nc2ccccc2[nH]1 | 5.2 µM (active)
CN1C(=O)c2cccc3c(S(=O)(=O)NC4CCCCC4)ccc1c23 | 50 µM (inactive)
CN(C)CCNC(=O)Cn1c(-c2ccccc2)nn(-c2ccc(Cl)cc2)c1=O | 6.5 µM (active)
O=c1cnnc(NCc2ccccc2)n1Cc1ccccc1 | 4.5 µM (active)
CCC[C@H](NCc1csc(N(C)C)n1)c1ncccc1Cl | 11.1 µM (active)
Cc1nc(-c2ccccn2)[nH]c(=O)c1CC(=O)N(C)[C@H]1CCc2ccccc21 | 6.3 µM (active)
CCOc1ncccc1C(=O)Nc1cc(F)ccc1F | 1.3 µM (active)
CCCCc1ccc(-c2cnn3cccnc23)cc1 | 8.3 µM (inactive)
Cc1cccnc1N1CCN(c2cc([C@H]3C[C@@H](N)C3)nc(N)n2)CC1 | 11.1 µM (active)
CC[C@H]1c2ccsc2CCN1C(=O)c1cc(OC)cc(OC)c1 | 13 µM (active)
O=C(Nc1ccc(O[C@H]2CCOC2)cc1)c1cn2ccnc2s1 | 1.8 µM (active)
O=C1c2sc3nccc(=O)n3c2C(=O)N1Cc1ccccc1 | 10.8 µM (active)
CC(C)c1cc(C(=O)NCc2ccc(N3CCO[C@@H](C)C3)nc2)n[nH]1 | 4.8 µM (active)
COc1ccccc1C(=O)Cc1nc2ccccc2o1 | 8 µM (inactive)
Oc1ccc(CCNc2ncnc3cccc(F)c23)cc1 | 3.7 µM (active)
Cc1noc(C)c1C(=O)Nc1nc(-c2ccc(S(=O)(=O)N(C)C)cc2)cs1 | 11.3 µM (active)
CCOc1cc(C)c(CN2C[C@@H](CN(C)C)C[C@H](CO)C2)cc1C(C)C | 4.1 µM (active)
Cc1nc(-c2ccccn2)[nH]c(=O)c1CC(=O)N1CCC[C@H]1C1CCCCC1 | 6.7 µM (active)
CCOc1ccc(NC(=O)c2nc(S(C)(=O)=O)ncc2Br)cc1 | 1.6 µM (active)
CC(C)N(CCNS(=O)(=O)c1ccc(-n2ncc(Cl)c(Cl)c2=O)cc1)C(C)C | 1.3 µM (active)
COc1ccc(C(N)=O)cc1NC(=O)c1cc(Br)c[nH]1 | 1.2 µM (active)
CCc1ccc2nc(N3CCC(C(=O)NCCN(CC)CC)CC3)sc2c1 | 3.1 µM (active)
CC(C)[C@H](NC1CCN(C(=O)c2ccoc2)CC1)c1ccccc1 | 10.7 µM (active)
Cc1c(C(=O)Nc2ccnc3ccnn23)cnn1-c1ccccc1F | 3.3 µM (active)
NCc1ccc(C(=O)NC2CCc3c[nH]nc3C2)cc1 (centres undefined) | 9.4 µM (active)

SMILES | CC50
CC(C)CCNC(=O)COc1ccc(-c2nc(C(C)C)no2)cc1 | 3.2 µM (active)
CCc1ccc(S(=O)(=O)N2CCN(c3ccc(C(C)=O)cc3)CC2)cc1 | 50 µM (inactive)
Cc1nc(NC(=O)c2cc(Br)cn2C)sc1C | 1 µM (active)
CN1CCC(NC(=O)c2ccc3c(c2)n(Cc2ccccc2)c(=O)c2ccnn23)CC1 | 9.8 µM (active)
N#CCCn1c(=O)c(C(=O)NCCCc2ccccc2)c(O)c2ccccc21 | 5.9 µM (active)
CC1=C(c2ccccc2)C1C(=O)NC1(C(N)=O)CCCCC1 (centres undefined) | 14.7 µM (active)
CCOc1ccc(CN2CCN(C(=O)c3ccc(-c4ncon4)cc3)CC2)cc1 | 5 µM (active)
Cc1ccc(NC(=O)c2nc(S(C)(=O)=O)ncc2Br)cc1 | 2.7 µM (active)
O=C(c1cc(-c2ccco2)on1)N1CCc2ccccc21 | 8.6 µM (active)
CCc1n[nH]cc1C(=O)N[C@H]1CC[C@H](Nc2nccc(-c3ccccn3)n2)C1 | 3.9 µM (active)
COc1cc(OC)c2cc(CCCN)[nH]c2c1 | 8.2 µM (active)
Cc1ccc(F)c(C(=O)N2CCC(Oc3ccncc3C)CC2)c1 | 11.2 µM (active)
CCS(=O)(=O)c1ncc(Br)c(C(=O)Nc2ccc(C)cc2)n1 | 3.1 µM (active)
CN1CCNc2cc(Br)ccc21 | 15.3 µM (inactive)
CC(=O)NCc1ccc(C(=O)Cn2ncc(Cl)c(Cl)c2=O)cc1 | 8 µM (active)
C[C@H]1Cc2cc(S(N)(=O)=O)ccc2N1Cc1cc(=O)n2cc(Cl)ccc2n1 | 10.9 µM (active)
Fc1cccc(OC2CCN(C[C@H]3[C@@H]4CNC[C@@H]43)CC2)c1 | 7.9 µM (active)
CCOc1ccc(OCC)c(NC(=O)c2ccc(N3CCN(C(C)C)CC3)cc2)c1 | 9.8 µM (active)
CCN1CCN(CCNC(=O)c2cn3ccnc(-c4ccc(C)cc4)c3n2)CC1 | 29 µM (inactive)
Cc1oc(-c2ccccc2)nc1C(=O)Nc1ncccc1O | 9.6 µM (inactive)
CN(C)S(=O)(=O)c1cccc(NC(=O)c2ccc(S(=O)(=O)N(C)c3ccccc3)cc2)c1 | 2.6 µM (active)
NC(=O)c1c(NC(=O)Cn2ncc(Cl)c(Cl)c2=O)sc2c1CCC2 | 1.9 µM (active)
CC(C)c1noc(-c2ccc(OCC(=O)NC(C)(C)C)cc2)n1 | 8.2 µM (active)
CC(NC(=O)N1CCCN(C)C2(CCNCC2)C1)c1ccccc1Cl (centres undefined) | 4.3 µM (active)
CCn1c(-c2cccc(S(=O)(=O)N3CCOCC3)c2)cs/c1=N/c1ccccc1 | 5 µM (active)
CN1C(=O)Cc2cc(S(=O)(=O)Nc3cccc4cccnc34)ccc21 | 6.9 µM (active)

SMILES | CC50
Cc1noc(C2CN(C3CCCC3)CCCN2C(=O)c2ccccc2)n1 (centres undefined) | 6.6 µM (active)
Oc1ccccc1N1CCN(C[C@H](O)COc2ccc(Oc3ccccc3)cc2)CC1 | 19.2 µM (inactive)
CCN(C(=O)c1ccco1)c1nc2ccccc2s1 | 0.9 µM (active)
O=C(c1ccncc1)N1CCC2(CC1)CC(Cc1nc(-c3ccncc3)no1)CCO2 (centres undefined) | 5.2 µM (active)
c1csc(Cn2cccc2CN2CCC[C@H](N3CCCC3)CC2)c1 | 5.2 µM (active)
CN(Cc1cc(=O)n2cccc(O)c2n1)CC1(c2ccccc2)CC1(C)C (centres undefined) | 2.9 µM (active)
O=C(COc1ccc(F)cc1)N1CCN(c2ncnc3c(F)cccc23)CC1 | 9.7 µM (active)
OC1(CNCCSCc2cccc(Cl)c2)CCNC1 (centres undefined) | 8.4 µM (active)
c1cc2c(cc1-c1ccc3c(n1)CCCN3)CCN2 | 13.5 µM (inactive)
Nc1nccc(-n2nnc3ccccc32)n1 | 8.7 µM (active)
OC(c1ccccc1)C(CN1CCCC1)c1ccccc1 (centres undefined) | 8.8 µM (active)
CC(C)c1cc(N2CCN(c3ccc(C#N)cc3)CC2)ncn1 | 5.7 µM (active)
CN(C)CC1CCN(Cc2[nH]c3ccccc3c2Cl)C1 (centres undefined) | 5.8 µM (active)
COc1ccc(OCCN2CCN(C(=O)c3ccc(OCc4cn5ccccc5n4)cc3)CC2)cc1 | 4.3 µM (active)
CN(C)C1CCN(C(C)(C)CNCc2cccc(Cl)c2N)CC1 | 12 µM (active)
Cc1ccn(-c2ccc(NC(=O)c3ccccn3)cc2)n1 | 4.5 µM (active)
COc1ccc(NC(=O)c2nc(S(C)(=O)=O)ncc2Br)cc1 | 1.9 µM (active)
CCCOc1ccc(NC(=O)N2CCN(c3ccncc3)CC2)cc1Cl | 7.4 µM (active)
CC1CCc2c(sc3ncnc(NN)c23)C1 (centres undefined) | 20.5 µM (inactive)
CCn1c(=O)c(C)nc2cc(C(=O)N3CCN(Cc4ccc(OC)cc4)CC3)ccc21 | 7.3 µM (active)
Clc1ccc2oc(C3CCNCC3)cc2c1 | 10.1 µM (active)
COc1ccc(NC(=O)Cn2sc3ccccc3c2=O)cc1OC | 12.2 µM (active)
Clc1cccc2[nH]nc(Br)c12 | 8.8 µM (active)
O[C@H]1CCN(Cc2csc(-c3ccoc3)n2)C12CCCC2 | 5 µM (active)
COCCNc1ncnc2scc(-c3ccccc3)c12 | 8.6 µM (active)
COc1ccc(CN2CCN(c3ncnc4sccc34)CC2)cc1OC | 1.4 µM (active)

SMILES | CC50
CC(=O)NCCc1ccc(C(=O)Cn2ncc(Cl)c(Cl)c2=O)s1 | 7.8 µM (active)
CC(=O)Nc1cccc(NC(=O)c2cc3ccccc3cc2O)c1 | 1.6 µM (inactive)
NNc1ncnc2ccc(Br)cc12 | 2.4 µM (active)
CC(C)CNC(=O)COc1ccc(-c2nc(C(C)C)no2)cc1 | 8.1 µM (active)
O=C(Nc1ccc(O)cc1)c1cnn(Cc2ccccc2Cl)c1 | 8.4 µM (active)
CC(C)CCOc1ccc(CN(CC(C)(C)N(C)C)S(C)(=O)=O)cc1 | 12.2 µM (active)
Cn1c(N2CCN(Cc3ccccc3)CC2)nc2c1c(=O)n(Cc1ccccc1)c(=O)n2C | 13.4 µM (inactive)
Cc1cc(C)cc(N2CCC(NCC3CCCNC3)CC2)c1 (centres undefined) | 8.2 µM (active)
CN(C)Cc1ccc(C(=O)Nc2nc3c(s2)CCCC3)cc1 | 11.3 µM (active)
CNc1c(Cl)ncnc1NCc1cccc(Cn2cccn2)c1 | 1.4 µM (active)
Cc1cccc(C(=O)Nc2ccc(C(=O)Nc3cccnc3)cc2)n1 | 5.8 µM (active)
CCN(C(=O)c1c[nH]n2c1nc(=O)c1ccccc12)[C@@H](C)c1ccc(F)cc1 | 5 µM (active)
O=C(Nc1ncc(-c2ccccc2)s1)c1ccccn1 | 2.3 µM (active)
O=C(Nc1nc(-c2cccnc2)cs1)c1ccccn1 | 11.6 µM (active)
Cc1ccc(NC(=O)c2ccc(Cl)s2)cc1S(=O)(=O)N1CCOCC1 | 4.7 µM (active)
Cc1ccc(NC(=O)CCN(C)CC2CCN(C)C2(C)C)cc1F (centres undefined) | 9.7 µM (active)
COc1cccc(Cn2c(=O)c3ccnn3c3ccc(C(=O)NCCN(C)C)cc32)c1 | 12.3 µM (active)
Cc1cc2c(N3CC[C@@]4(C3)NC(=O)N(C)C4=O)ccnc2cc1Cl | 8.6 µM (active)
Clc1ccc(-c2cnc(CN3CC4(CCNCC4)[C@H]4COC[C@H]43)o2)cc1 | 12.8 µM (active)
Cc1cc(N2CCNCC2)nc2c(C)cccc12 | 11.1 µM (active)
COc1ccc(CN2CCN(CCSC)CC2)c2c(OC)cccc12 | 12.6 µM (inactive)
NCCCNc1nc(-c2ccccc2)nc2ccccc12 | 11.9 µM (active)
CCOc1cc(C(=O)N[C@H]2CCN(C3CCN(C)CC3)C2)ccc1C | 15.9 µM (inactive)
Cn1c(CNC(=O)c2ccc3c(c2)n(C)c(=O)c2ccnn23)nc2ccccc21 | 16.4 µM (inactive)
CS(=O)(=O)c1ncc(Br)c(C(=O)Nc2ccc(F)cc2)n1 | 2.8 µM (active)
CCN1CCN(Cc2cc(=O)oc3cc(-c4ccccc4)c(O)cc23)CC1 | 3.8 µM (active)
